Experimental data taken from patent US12458688B2, “Epitopes” (Scancell Limited, priority 2018, dated 2025).
Where no end group is shown, it is not given here. [ ]: non-standard residue; d: D form. hCit = NC(=O)NCCCC[C@H](N)C(=O)O

Experiments:
HLA transgenic mice = test: T cell response to Hcit peptides in HLA transgenic mice (screening, ex vivo ELISpot); parameters: species or system mouse; settings: yes/no; Hcit peptide with CpG/MPLA
Method: (§1) C57BL/6 mice (Charles River, UK), HLA-DR4 mice (Model #4149, Taconic, USA), HLA-A2/DR1 (HHDII/DR1, Pasteur Institute), HLA-A2.1+/+HLA-DP4+/+hCD4+/+ (HLA-HHDII/DP4) transgenic mice (EM: 02221, European Mouse Mutant Archive) described in patent WO2013/017545 A1 (EMMA repository, France) were used, aged between 8 and 12 weeks. Peptides were dissolved in PBS to 1 mg/ml and then emulsified (a series of dilutions) with CpG ODN 1826 and MPLA 6 μg/mouse of each (Invivogen, UK). Peptides (25 μg/mouse) were injected subcutaneously at the base of the tail. Mice were immunised at days 1, 7 and 14 for peptide immunisation. Spleens were removed for analysis at day 21 unless stated otherwise.
(§2) ELISpot assays were performed using murine IFNγ, IL-17 and IL-10 capture and detection reagents according to the manufacturer's instructions (Mabtech, Sweden). In brief, anti-IFNγ, IL-17 and IL-10 specific antibodies were coated onto wells of 96-well Immobilin-P plate. Synthetic peptides (at various concentrations) and 5×10^5 per well splenocytes were added to wells of the plate in quadruplicate Tumour target cells were added where relevant at 5×10^4/well in triplicate and plates incubated for 40 hrs at 37° C. After incubation, captured IFNγ, IL-10 and IL-17 were detected by biotinylated anti-IFNγ, IL-10 and IL-17 antibodies and developed with a streptavidin alkaline phosphatase and chromogenic substrate. Lipopolysaccharide (LPS; 5 μg/ml) was used as a positive control. For MHC blocking studies, anti-CD4 blocking antibody (GK1.5) or anti-CD4 blocking antibody (RPA-T4) for HHDII/DP4 mice which express human CD4 and anti-CD8 blocking antibody (2.43) from Bioxcell were used at 20 μg/ml. Spots were analysed and counted using an automated plate reader (Cellular Technologies Ltd).
(§3) Screening was performed to identify potential homocitrullinated vimentin epitopes in mice. Mice were immunised with pools of homocitrullinated peptides. […] Each pool was administered as three immunisations containing 20 μg of each peptide and CpG/MPLA as an adjuvant on day 1, 8 and 15. On day 21 the mice were culled and the immune responses to each peptide within the immunising pool were assessed by ex vivo ELISpot. Given that different mouse strains have different MHC repertoires a number of strains were used for screening. Peptide responses were assessed in transgenic strains expressing human DR4 or HHDII/DR1 in a C57BL/6 background (see methods).
(§4) Screening was performed to identify potential homocitrullinated ALDOA epitopes in transgenic HHDII/DP4 and HHDII/DR1 mice. Mice were immunised with pools of human homocitrullinated peptides. […] Each pool was administered as three immunisations containing 20 μg of each peptide and CpG/MPLA as an adjuvant. After 21 days the mice were culled and the immune responses to each peptide within the immunising pool were assessed by ex vivo ELISpot in HHDII/DP4 (FIG. 4b) and HHDII/DR1 mice (FIG. 4d).
as §4, with “Using this combination of predictions, 5 CyK8 peptides containing homocitrulline were synthesised (Table 4). Screening” for “Screening”, “Cyk8” for “ALDOA”, “HHDII/DP4.” for “HHDII/DP4 and HHDII/DR1 mice.”, “10a).” for “4b) and HHDII/DR1 mice (FIG. 4d).”

HLA-HHDII/DR1 mice = test: Ex vivo IFNγ ELISpot after peptide immunisation, HHDII/DR1 mice; format: in vivo, mouse
Method: as §1, §2
as §3, with “methods). […]” for “methods).”
The five selected homocitrullinated Cyk8 peptides were also screened in HHDII/DR1 transgenic mice. […] Response to Cyk8 112Hcit peptide in the HHDII/DR1 mice was lost in the presence of CD8 blocking antibody but less effect of the CD4 blocking antibody was seen (FIG. 12b). […] Responses to homocitrullinated Cyk8 peptides show both CD4 and CD8 mediated responses.

HLA-DR4 mice = test: Ex vivo IFNγ ELISpot after peptide immunisation, HLA-DR4 mice; format: in vivo, mouse
Method: as §1, §2, §3

HLA-DP4 = biological target: T1, HLA-DP4 (Homo sapiens, UniProt P04440+P20036); test: DP4 competition assay with biotinylated Hep B peptide; settings: inhibition of biotinylated Hep B binding to HLA-DP4; 5 fold excess test peptide, equal amount for unlabelled Hep B
T1 sequence (P20036 29-260): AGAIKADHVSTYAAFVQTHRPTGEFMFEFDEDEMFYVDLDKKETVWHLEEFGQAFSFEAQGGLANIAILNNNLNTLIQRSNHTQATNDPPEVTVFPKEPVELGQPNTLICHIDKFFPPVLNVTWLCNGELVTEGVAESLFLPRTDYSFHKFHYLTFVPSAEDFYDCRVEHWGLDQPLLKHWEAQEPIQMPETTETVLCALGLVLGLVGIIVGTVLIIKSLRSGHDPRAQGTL
T1 sequence (P04440 30-258): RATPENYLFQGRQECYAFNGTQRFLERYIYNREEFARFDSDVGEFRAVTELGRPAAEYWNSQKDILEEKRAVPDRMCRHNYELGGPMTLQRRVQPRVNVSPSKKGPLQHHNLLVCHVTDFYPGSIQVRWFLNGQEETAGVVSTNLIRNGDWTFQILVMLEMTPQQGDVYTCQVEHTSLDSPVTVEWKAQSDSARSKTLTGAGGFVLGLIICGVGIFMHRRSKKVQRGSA
Method: 2×T175 gave 2.5×10^7 B16 HHDII/DP4 (B16F1 β2M H2Ab1 dKO A35 HHDII/DP4 H7/2E9/F9 p14) cells. This was enough for 5 preps using the following protocol with Mem-PER™ Plus Membrane Protein Extraction Kit (thermo-scientific cat #89842).
5×10^6 cells were resuspended in the growth media by scraping the cells off the surface of the plate with a cell scraper and then centrifuged at 300 g for 5 mins. The cell pellet was washed with 3 ml of Cell Wash Solution and centrifuged at 300 g for 5 mins. The supernatant was removed and discarded. The cells were resuspended in 1.5 ml of Cell Wash Solution and transfer to a 2 ml centrifuge tube and centrifuged at 300 g for 5 mins. The supernatant was discarded. 0.75 ml of permeabilization buffer was added to the cell pellet and vortexed briefly to obtain a homogeneous cell suspension and incubated for 10 mins at 4° C. with constant mixing. The permeabilized cells were centrifuge for 15 mins at 16,000g before carefully removing the supernatant containing cytosolic proteins and transfering to a new tube. 0.5 ml of solubilization buffer was added to the pellet and resuspend prior to incubating at 4° C. for 30 minutes with constant mixing prior to centrifugation at 16,000g for 15 mins at 4° C. The supernatant containing solubilized membrane and membrane-associated proteins was transfered to a new tube. Aliquots were frozen at −80° C. for future use. 12.5 μl Halt™ Protease and Phosphatase Inhibitor Cocktail, EDTA-free (100X) thermo-scientific (Catalog number 78445) was added prior to freezing.
High binding plates were coated with streptavidin (Sigma S4762 at 1 mg/ml) 1/500 in PBS and incubated overnight at 4° C. The plates were blocked with 1% BSA in PBS for 4 hrs at room temp and washed 3×PBS/0.5% Tweenx. 450 μl of cell prep lysate (B16F1 B16 HHDII/DP4 H7/2E9/F9) was mixed with 50 μg test peptide (see below) or 10 μg of unlabelled Hep B peptide for 30 mins. 10 μg biotinylated Hep B peptide was added & incubated for 4 hrs at 37° C.:
Lysate/peptide mix was added to the plates at 100 μl/well and incubated for 4 hrs at room temperature. Plates were washed 3× with PBS/0.5% Tween. 100 μl per well of Leinco anti-Human HLA-DP4 clone B7/21 #H260 1 mg/ml at 1/500 dilution in 1% BSA/PBS was added and incubated for 1 hr at room temperature prior to washing 3× PBS/0.5% Tween. Goat anti-mouse lgG3-HRP at 0.5 mg/ml 1/500 100 μl per well (Invitrogen #M32607) diluted in 1% BSA/PBS) was added for 1 hr at room temperature prior to washing and adding 150 μl of TMB substrate to each well. The reaction was stopped with 50 μl of 2N H2SO4 and plates read plate at 450 nm.
To ensure that the biotinylation of Hep B had not interfered with its binding, HLA-DP4 was incubated with equal amounts of biotinylated and unlabelled Hep B peptide. Unlabelled peptide competed equally reducing binding by 47% (FIG. 53b).
The biotinylated HepB peptide was then incubated with a 5 fold excess of the unlabelled homocitrulline peptides. All peptides inhibited the binding of biotinylated Hep B to HLA-DP4 but to varying levels (FIG. 53c-e).

B16F1 HHDII/DR1 tumours = test: Tumour therapy, B16F1 HHDII/DR1 tumour in HHDII/DR1 mice; format: in vivo, mouse; settings: peptide with CpG/MPLA days 4, 11, 18
Description: To determine if the epitopes that stimulate T cell responses are presented on MHC-II within the tumour environment, our homocitrullinated peptides were checked for tumour therapy in B16 tumour models. Mice were implanted with tumour cells on day 1 and then immunised with peptides and CpG/MPLA on days 4, 11 and 18.
HHDII/DR1 (FIG. 19a) or DR4 (FIG. 19b) transgenic mice were challenged with B16F1 HHDII/DR1 or B16F1 DR4 tumours respectively prior to immunisation with vimentin 116-135Hcit peptide and tumour growth and survival were monitored.
HHDII/DR1 mice were implanted with B16HHDII/DR1 tumour cells on day 1 and then immunised with Cyk8 371Hcit, 112hcit or both peptides and CpG/MPLA on days 4, 11 and 18.

HLA-DP4 (human) = test: DP4 competition ELISA; competitor biotinylated Hep B peptide; 5 fold excess of unlabelled peptide
[1] = 3 immunisations with CpG/MPLA, day 21

% inhibition (HLA-DP4 (human)) [%]	Molecule	T cell response (HLA transgenic mice)	also measured
44	NYID[hCit]VRFLEQQN[hCit]ILLAEL [Vimentin 116-135 Hcit]	–	–
76	[hCit]DGADFA[hCit]WRCVL[hCit]IGEH [Aldolase A 140-157 Hcit]	–	–
84	LSDHHVYLEGTLL[hCit]PNMVT [Aldolase A 217-235 Hcit]	–	–
69	IGGVILFHETLYQ[hCit]ADDGRP [Aldolase A 74-93 Hcit]	–	–
60	[hCit]LALDIEIATYR[hCit]LLEGEE [Cytokeratin 8 381-399 Hcit]	–	–

Second part, the molecule before the results:

Molecule	% inhibition (HLA-DP4 (human)) [%]	T cell response (HLA transgenic mice)	also measured
EAEEWY-Hcit-S-Hcit-FADLSEAAN [Vimentin 286-303 Hcit]	–	no	–
KVRFLEQQN-Hcit-LLAE [Vimentin 120-134 Hcit]	–	–	cross reactivity of vimentin 116-135 Hcit response to shorter Hcit peptide (HLA-HHDII/DR1 mice): Cross reactivity was seen; cross reactivity of vimentin 116-135 Hcit response to shorter Hcit peptide (HLA-DR4 mice): Cross reactivity was seen
LPLVDTHS-Hcit-RTLL-Hcit-TVETRDGQV [Vimentin 431-454 Hcit]	–	no	–
LSDHHVYLEGTLL-hcit-PNMVT (LSDHHVYLEGTLL[hCit]PNMVT) [Aldolase A 217-235 Hcit]	–	no	% inhibition (HLA-DP4): 84%
NYIDKVRFLEQQNKILLAEL [Vim 116-135 WT, unmodified wild type vimentin 116-135 peptide, reference compound]	–	–	IFNγ ELISpot response (HLA-HHDII/DR1 mice; [1]): failed to induce any responses; anti-tumour response / survival vs control (B16F1 HHDII/DR1 tumours): did not show a significant anti-tumour response; IFNγ ELISpot response (HLA-DR4 mice; [1]): failed to induce any responses; % inhibition (HLA-DP4): 48%
QIDVDVS-Hcit-PDLTAALRDVRQQ [Vimentin 255-275 Hcit]	–	no	–
hcit-CPLL-hcit-PWALTFSYGRALQ ([hCit]CPLL[hCit]PWALTFSYGRALQ) [Aldolase A 289-307 Hcit]	–	no	% inhibition (HLA-DP4): 45%
KFASFID[hCit]VRFLEQQN[hCit]MLE [Cytokeratin 8 101-120 Hcit]	71	–	–
LEQQN[hCit]MLET[hCit]WSLLQQQ[hCit]T [Cytokeratin 8 112-131 Hcit]	64	–	–
